Results from US20230126310A1 (priority 2020, published 2023).
Where a name gives a salt, the structure may show the parent alone. Read-outs that look alike come from different tables or passages of the source.

Test system: SARS-CoV-2
Experiment: microbe, parasite or virus in culture
Details: Severe acute respiratory syndrome coronavirus 2, Caco-2, 48 h; for inhibition at 10 µM: read-out: % Inh. (% Inhibition of SARS-CoV-2)

Structure (SMILES) | inhibition at 10 µM [%] | IC50 [µM] | IC50 (read-out: pIC50 (converted)) [µM]
COc1cc2nc(N3CCN(C(=O)c4ccco4)CC3)nc(N)c2cc1OC [PRAZOSIN HYDROCHLORIDE] | 58 | – | –
CC(=O)NC(Cc1ccccc1)C(=O)O (centres unmarked) [AFALANINE] | 62.1 | – | –
Oc1cccc(-c2c3nc(c(-c4cccc(O)c4)c4ccc([nH]4)c(-c4cccc(O)c4)c4nc(c(-c5cccc(O)c5)c5ccc2[nH]5)CC4)C=C3)c1 [Temoporfin] | 85.9 | – | –
c1ccc(-c2ccc(C(c3ccccc3)n3ccnc3)cc2)cc1 (centres unmarked) [BIFONAZOLE] | 70.8 | – | –
CCc1cnn2c(NCc3ccc[n+]([O-])c3)cc(N3CCCC[C@H]3CCO)nc12 [Dinaciclib (SCH727965), Dinaciclib] | 79.4 | – | –
O=CC=Cc1ccccc1 [cinnamaldehyde] | 62.3 | – | –
Cc1cc2c(C(C)C)c(O)c(O)c(C=O)c2c(O)c1-c1c(C)cc2c(C(C)C)c(O)c(O)c(C=O)c2c1O [gossypol] | 66.3 | – | –
N#CC(c1ccnc(OCc2ccc(CN3CCOCC3)cc2)n1)c1nc2ccccc2s1 (centres unmarked) [Bentamapimod] | 78.4 | 5.12 | 5.13
COc1ccc(S(=O)(=O)N2CCC[C@H]2C(=O)Nc2cc(C)cc(C)c2)cc1 [ACT-462206] | 53.8 | – | –
C[C@@]1(O)[C@H](O)[C@@H](CO)O[C@H]1n1ccc(N)nc1=O [NM107, 2′-C-methylcytidine, 2′-C-methylcytidine] | 60.1 | – | –
Cc1ccc(C(=O)N(CCCN)[C@@H](c2nc3cc(Cl)ccc3c(=O)n2Cc2ccccc2)C(C)C)cc1 [Ispinesib (SB-715992), Ispinesib] | 91.9 | – | –
CCCCCCCCCCCCCCCC[N+](C)(C)CCN(Cc1ccc(OC)cc1)c1ncccn1 [thonzonium bromide] | 76.4 | – | –
Cc1c(-c2ccc(-c3ccccc3F)cc2)nc2ccc(F)cc2c1C(=O)O [Brequinar sodium salt hydrate] | 61 | – | –
CS(=O)(=O)CCNCc1nc(-c2ccc3ncnc(Nc4ccc(OCc5cccc(F)c5)c(Cl)c4)c3c2)cs1 [GW-583340] | 60.1 | – | –
C/C(=N\NC(=S)NNC(=S)Nc1ccccc1Cl)c1ccccn1 [N-(2-chlorophenyl)-2-({(2E)-2-[1-(2-pyridinyl)ethylidene]hydrazino}carbothioyl)hydrazinecarbothioamide] | 101 | – | –
Cc1nc(Nc2ncc(C(=O)Nc3c(C)cccc3Cl)s2)cc(N2CCN(CCO)CC2)n1 [Dasatinib] | 52.7 | – | –
COc1ccc(CCc2nc3cc(-c4c(C)noc4C)ccc3n2C[C@H](C)N2CCOCC2)cc1Cl [SGC-CBP30] | 59.2 | – | –
COC(=O)C1=C(C)NC(C)=C(C(=O)NCCCN2CCC(c3ccccc3)(c3ccccc3)CC2)C1c1ccc([N+](=O)[O-])cc1 (centres unmarked) [SNAP-5089] | 72.6 | – | –
CN1C[C@H](CNC(=O)OCc2ccccc2)C[C@@H]2c3cccc4c3c(cn4C)C[C@H]21 [METERGOLINE] | 54.6 | – | –
NC(=O)N/N=C/c1ccc([N+](=O)[O-])o1 [NITROFURAZONE] | 87.3 | – | –
COc1cc(C)c2c(Oc3cccc(C(F)(F)F)c3)c(OC)cc(NC(C)CCCN)c2n1 (centres unmarked) [tafenoquine] | 90 | – | –
COc1ccc(CCCOC(Cn2ccnc2)c2ccc(OC)cc2)cc1 (centres unmarked) [SKF-96365] | 70.3 | – | –
COc1cc(N2CCC(N3CCN(C)CC3)CC2)ccc1Nc1ncnc(Nc2ccccc2S(=O)(=O)C(C)C)n1 [ASP3026] | 62.2 | – | –

Structure (SMILES) | inhibition at 10 µM [%] | IC50 [µM] | IC50 (read-out: pIC50 (converted)) [µM]
CN1CCC(Nc2ncc3ncnc(Nc4ccc(F)c(Cl)c4)c3n2)CC1 [BIBX-1382] | 79.3 | – | –
CC(C)[C@]12O[C@H]1[C@@H]1O[C@]13[C@]1(O[C@H]1C[C@H]1C4=C(CC[C@@]13C)C(=O)OC4)[C@@H]2O [Triptolide] | 90.7 | – | –
CC[C@@]1(O)C(=O)OCc2c1cc1n(c2=O)Cc2cc3ccccc3nc2-1 [camptothecin] | 81.8 | – | –
O=C(O)c1ccc(OCCn2ccnc2)cc1 [Dazoxiben] | 56 | – | –
Clc1ccc(CCC(Cn2ccnc2)Sc2c(Cl)cccc2Cl)cc1 (centres unmarked) [BUTOCONAZOLE] | 70.6 | – | –
CN(C)CC/C=C1/c2ccccc2Sc2ccc(Cl)cc21 [CHLORPROTHIXENE HYDROCHLORIDE] | 55.6 | – | –
C[C@]12CC[C@H](O)CC1=CC[C@@H]1[C@@H]2CC[C@]2(C)C(n3cnc4ccccc43)=CC[C@@H]12 [Galeterone (TOK-001), Galeterone] | 69 | – | –
CCN(CC)Cc1cc(Nc2ccnc3cc(Cl)ccc23)ccc1O [AMODIAQUINE DIHYDROCHLORIDE] | 78.8 | – | –
C[C@]1(O)C[C@@H](c2nc(-c3ccc4ccc(-c5ccccc5)nc4c3)c3c(N)nccn32)C1 [OSI-906 (Linsitinib), Linsitinib] | 110 | 24.9 | 25.1
CN(C)CC[C@H](CSc1ccccc1)Nc1ccc(S(=O)(=O)NC(=O)c2ccc(N3CCN(Cc4ccccc4-c4ccc(Cl)cc4)CC3)cc2)cc1[N+](=O)[O-] [ABT-737] | 63.1 | – | –
Clc1ccc(C(Cn2ccnc2)OCc2ccc(Sc3ccccc3)cc2)c(Cl)c1 (centres unmarked) [Fenticonazole nitrate] | 105 | – | –
CC(=O)OCC(=O)[C@@]1(O)CC[C@H]2[C@@H]3CCC4=CC(=O)C=C[C@]4(C)[C@H]3[C@@H](O)C[C@@]21C [PREDNISOLONE ACETATE] | 60 | – | –
C[C@]12CC[C@H](O)C[C@H]1CC[C@@H]1[C@@H]2C[C@@H](O)[C@]2(C)[C@@H](C3=CC(=O)OC3)CC[C@]12O [Digoxigenin] | 66.8 | – | –
O=C1NC(c2cccc([N+](=O)[O-])c2)=CCN1c1ccccc1O [icilin] | 55.1 | – | –
Nc1nc(Cl)nc2c1ncn2[C@@H]1O[C@H](CO)[C@@H](O)[C@H]1O [2-chloroadenosine] | 72.5 | – | –
COc1cccc([C@@H](C)NCCCc2ccccc2Cl)c1 [tecalcet] | 78.1 | – | –
Cc1nc2ccccn2c(=O)c1CCN1CCC(C(=O)c2ccc(F)cc2)CC1 [pirenperone] | 64.1 | – | –
COC[C@H](NC(=O)c1cnc(C)s1)C(=O)N[C@@H](COC)C(=O)N[C@@H](Cc1ccccc1)C(=O)[C@@]1(C)CO1 [Oprozomib (ONX 0912), Oprozomib] | 52.7 | – | –
NCCNC(=O)c1ccc(Cl)cn1 [lazabemide] | 67.9 | – | –
Clc1ccc(COC(Cn2ccnc2)c2ccc(Cl)cc2Cl)cc1 (centres unmarked) [ECONAZOLE NITRATE] | 87.3 | – | –
CCOc1cc2ncc(C#N)c(Nc3ccc(F)c(Cl)c3)c2cc1NC(=O)/C=C/CN(C)C [Pelitinib (EKB-569), Pelitinib] | 83.4 | – | –
NCCC(=O)N[C@@H](Cc1cnc[nH]1)C(=O)O [Carnosine] | 94.3 | – | –
COc1ccc(CCNCC(O)COc2cccc(C)c2)cc1OC (centres unmarked) [Bevantolol HCl] | 77.1 | – | –

Structure (SMILES) | inhibition at 10 µM [%] | IC50 [µM] | IC50 (read-out: pIC50 (converted)) [µM]
CCc1nn(CCCN2CCN(c3cccc(Cl)c3)CC2)c(=O)n1CCOc1ccccc1 [NEFAZODONE HYDROCHLORIDE] | 71.7 | – | –
[H]/N=C(\N/C(=N/[H])NCCCCCCNC(=N)NC(=N)Nc1ccc(Cl)cc1)Nc1ccc(Cl)cc1 [CHLORHEXIDINE DIHYDROCHLORIDE] | 86.4 | – | –
O[C@@H](COc1cccc2ncccc12)CN1CCN([C@@H]2c3ccccc3[C@@H]3[C@H](c4ccccc42)C3(F)F)CC1 [LY335979 (Zosuquidar trihydrochloride), Zosuquidar trihydrochloride] | 93 | 26.8 | 26.9
CCOC(=O)C1=C(C)NC(C)=C(C(=O)OC)C1c1cccc(Cl)c1Cl (centres unmarked) [FELODIPINE] | 51.2 | – | –
CCn1c(=O)c(-c2cc[nH]n2)cc2c(C)nc(N)nc21 [Voxtalisib] | 84.3 | – | –
C[C@@H]1CN(Cc2ccc(F)cc2)[C@@H](C)CN1C(=O)c1cc2c(C(=O)C(=O)N(C)C)cn(C)c2cc1Cl [talmapimod] | 92.3 | 22.9 | 22.9
COc1ccc(N(C)c2nc(C)nc3ccccc23)cc1 [verubulin] | 50.9 | – | –
C[S+]([O-])CCCCN=C=S (centres unmarked) [sulforaphane] | 94.2 | – | –
N#Cc1cn([C@@H]2O[C@H](CO)[C@@H](O)[C@H]2O)c2ncnc(N)c12 [toyocamycin] | 68.4 | – | –
Clc1ccc(C(Cn2ccnc2)OCc2ccsc2Cl)c(Cl)c1 (centres unmarked) [TIOCONAZOLE] | 50.6 | – | –
C=C[C@H]1CN2CC[C@H]1C[C@H]2[C@H](OC(=O)OCC)c1ccnc2ccc(OC)cc12 [QUININE ETHYL CARBONATE] | 59.1 | – | –
CC1(C)CC(=O)c2c(C(F)(F)F)nn(-c3ccc(C(N)=O)c(N[C@H]4CC[C@H](O)CC4)c3)c2C1 [SNX-2112] | 96.6 | – | –
O=C(Nc1ccc(Cl)cc1)Nc1ccc(Cl)c(Cl)c1 [Triclocarban] | 97.2 | – | –
CN(C)C(=O)C(CCN1CCC(O)(c2ccc(Cl)cc2)CC1)(c1ccccc1)c1ccccc1 [LOPERAMIDE HYDROCHLORIDE] | 58.9 | – | –
NCCC(Oc1ccc(C(F)(F)F)cc1)c1ccccc1 (centres unmarked) [norfluoxetine] | 95 | – | –
CC(=O)CC(c1ccc([N+](=O)[O-])cc1)c1c(O)c2ccccc2oc1=O (centres unmarked) [Acenocoumarin] | 64.2 | – | –
C[C@H](/C=C/[C@H](C)C(C)(C)O)[C@H]1CC[C@H]2/C(=C/C=C3C[C@@H](O)C[C@H](O)C3)CCC[C@]12C [PARICALCITOL] | 86 | – | –
CNC(=O)[C@@H](NC(=O)[C@H](CC(C)C)[C@H](O)C(=O)NO)C(C)(C)C [Marimastat] | 68.7 | – | –
CN1CCN(c2ccc(C(=O)Nc3n[nH]c4ccc(Cc5cc(F)cc(F)c5)cc34)c(NC3CCOCC3)c2)CC1 [Entrectinib (RXDX-101), Entrectinib] | 70 | – | –
O=C(NC1CCN(CCCCC2(C(=O)NCC(F)(F)F)c3ccccc3-c3ccccc32)CC1)c1ccccc1-c1ccc(C(F)(F)F)cc1 [Lomitapide] | 77.4 | – | –
O=C(c1ccc(F)c(F)c1Nc1ccc(I)cc1F)N1CC(O)([C@@H]2CCCCN2)C1 [Cobimetinib] | 61.6 | – | –
CCN(CC)CCNc1ccc(CO)c2sc3ccccc3c(=O)c12 [Hycanthone] | 60.2 | – | –
COc1cc(CN2CCN(c3ccc(F)cc3)CC2)cc(OC)c1OC [1-(4-fluorophenyl)-4-(3,4,5-trimethoxybenzyl)piperazine] | 67.3 | – | –
